# What was measured:
# Type in all cases: physicochemical
# [1] = Compatibility between the antigen and the STING agonist (HPLC, SDS PAGE of supernatant after centrifugation); details: groups 2, 3, 4: 45, 15, 5 μg/ml STING agonist aqueous, 20 μg/mL HSV-2 gE-gI, no added Al(OH)3
# Description: (§1) The compatibility between the antigen and the STING agonist was assessed, on the one hand, by determining the amount of the STING agonist recovered (using HPLC) in the supernatant after centrifugation of the formulations described in the above groups 2, 3 and 4, and, on the other hand, by determining the amount and profile of the antigen recovered (using HPLC) in the supernatant after centrifugation of the formulations described in the above groups 2, 3 and 4. The adsorption of the STING agonist and the antigen on Al(OH)3 was similarly assessed by determining the amount of STING agonist and amount and profile of the antigen, respectively, recovered) in the supernatant after centrifugation of the formulations described in the above groups 5, 6, 7 and 8. The concentration of the HSV-2 gE-gI antigen was 20 μg/mL in each group. The precise methodology for preparing the STING agonist and Al(OH)3 formulation was as follows: a solution of Al(OH)3 in water for injection was prepared, the required amount of STING agonist was added, the required amount of HSV-2 gE-gI to have 20 μg/mL in final solution was added. The solution was then mixed for 30 minutes at room temperature. NaCl was added, and the mixture was mixed for 5 minutes.
# [2] = Minimal amount of Al(OH)3 needed to fully adsorb the STING agonist (fluorometry of supernatant); details: STING agonist 45 μg/ml, Al(OH)3 0 to 200 μg/ml (by reference to Al3+)
# Description: 1.2 Next, the minimal amount of Al(OH)3 needed to fully adsorb the STING agonist was determined. Compound 1 was used. The amount of the STING agonist was fixed at 45 μg/ml and AL(OH)3 varied from 0 to 200 μg/ml (by reference to Al^3+), so that different ratios STING agonist:Al(OH)3 were tested. The different formulations (as indicated in Table 2) were mixed under agitation for 1 h. Samples were then centrifuged for 10 min at 8000 rpm. The supernatant of the centrifuged samples was then analysed to characterize the amount of STING agonist which was not adsorbed. The quantification was performed by fluorometry.
# [3] = Adsorption of the STING agonist and the antigen on Al(OH)3 (supernatant after centrifugation); details: groups 5, 6, 7, 8: 45, 15, 5 μg/ml STING agonist with 111 μg/ml Al(OH)3, or 15 μg/ml with 35 μg/ml Al(OH)3; antigen 20 μg/mL
# Description: as §1
smiles,measurement,setting,value
"CCn1nc(C)cc1C(=O)/N=c1\[nH]c2cc(C(N)=O)cc(OC)c2n1C/C=C/Cn1/c(=N/C(=O)c2cc(C)nn2CC)[nH]c2cc(C(N)=O)cc(OCCCOP(=O)(O)O)c21 [Compound 1, 3-(((E)-6-carbamoyl-3-((E)-4-((E)-5-carbamoyl-2-((1-ethyl-3-methyl-1H-pyrazole-5-carbonyl)imino)-7-methoxy-2,3-dihydro-1H-benzo[d]imidazol-1-yl)but-2-en-1-yl)-2-((1-ethyl-3-methyl-1H-pyrazole-5-carbonyl)imino)-2,3-dihydro-1H-benzo[d]imidazol-4-yl)oxy)propyl dihydrogen phosphate]",amount of STING agonist in supernatant of centrifuged vs non-centrifuged samples,[1],no aggregation or precipitation occurs in the presence of the antigen
same,adsorption of STING agonist on Al(OH)3 (in words),[2],generally well adsorbed on Al(OH)3
same,maximum ratio STING agonist to aluminium hydroxide allowing for an optimal adsorption,[2],about 1.5
same,adsorption of STING agonist on Al(OH)3 (STING agonist in supernatant),[3],entire amount of the STING agonist was adsorbed on Al(OH)3
